In PMC12892976, “Alkylation-based optimization of antifungal FPPS inhibitors yields a potent, broad-spectrum lipophilic zoledronate derivative” (mBio, 2025):
≈ marks a conversion by molar mass, not a printed value.

Tests used:
Microsporum canis [1] = test: checkerboard drug interaction (FICI, MICc); type: cell-based;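 note: simplified diagonal checkerboard screen pairing antifungals with FPPS inhibitors, FICI calculated under the Loewe additivity model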
Procedure: (§2) Drug interactions between antifungals and FPPS inhibitors were investigated using a simplified checkerboard diagonal screening method ([45]). […] FICIs were determined according to the Loewe additivity model ([17]).

Cryptococcus tetragattii = test: MIC broth microdilution (CLSI); type: cell-based; details: Cryptococcus tetragattii WM779
Procedure: (§3) Antifungal susceptibility was determined by broth microdilution according to the CLSI guidelines described in M27-Ed4 ([16]).

Epidermophyton floccosum = test: MIC broth microdilution (CLSI); type: cell-based; details: Epidermophyon floccosum R-113
Procedure: as §3

Aspergillus terreus = test: MIC broth microdilution (CLSI); type: cell-based; details: Aspergillus terreus 75-16-089-2500
Procedure: as §3

Candida dubliniensis = test: MIC broth microdilution (CLSI); type: cell-based; details: Candida dubliniensis M230642
Procedure: as §3

Nannizzia gypsea [2] = test: MIC broth microdilution (CLSI); type: cell-based; details: Nannizzia gypsea R-131
Procedure: as §3

Fusarium oxysporum [3] = test: MIC broth microdilution (CLSI); type: cell-based; details: Fusarium oxysporum 07-200-3012
Procedure: as §3

Trichophyton tonsurans = test: checkerboard drug interaction (FICI, MICc); type: cell-based;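 note: simplified diagonal checkerboard screen combining antifungals with FPPS inhibitors, with FICI calculated under the Loewe additivity model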
Procedure: as §2

Aspergillus felis = test: MIC broth microdilution (CLSI); type: cell-based; details: Aspergillus felis IHE87256683D6
Procedure: as §3

Pichia kudriavzevii = test: checkerboard drug interaction (FICI, MICc); type: cell-based;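 note: antifungal plus FPPS inhibitor interactions tested in a simplified diagonal checkerboard screen, with FICI calculated under the Loewe additivity model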
Procedure: as §2

Mucor circinelloides = test: checkerboard drug interaction (FICI, MICc); type: cell-based;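 note: simplified diagonal checkerboard screen pairing antifungals with FPPS inhibitors, FICI calculated under the Loewe additivity model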
Procedure: as §2

Candida parapsilosis = test: checkerboard drug interaction (FICI, MICc); type: cell-based;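 note: simplified diagonal checkerboard screen pairing antifungals with FPPS inhibitors, with FICI computed under the Loewe additivity model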
Procedure: as §2

Fusarium oxysporum [4] = test: checkerboard drug interaction (FICI, MICc); type: cell-based;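 note: simplified diagonal checkerboard screen pairing antifungals with FPPS inhibitors, FICI calculated under the Loewe additivity model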
Procedure: as §2

Scedosporium apiospermum = test: MIC broth microdilution (CLSI); type: cell-based; details: Scedosporium apiospermum 04-16-022-2268
Procedure: as §3

Fusarium solani = test: checkerboard drug interaction (FICI, MICc); type: cell-based;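 note: simplified diagonal checkerboard screen pairing antifungals with FPPS inhibitors, FICI derived under the Loewe additivity model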
Procedure: as §2

Candida tropicalis [5] = test: checkerboard drug interaction (FICI, MICc); type: cell-based;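 note: simplified diagonal checkerboard screen of antifungal plus FPPS inhibitor combinations, with FICI computed by the Loewe additivity model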
Procedure: as §2

Cryptococcus gattii [6] = test: checkerboard drug interaction (FICI, MICc); type: cell-based;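 note: simplified diagonal checkerboard screen pairing antifungals with FPPS inhibitors, FICI computed under the Loewe additivity model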
Procedure: as §2

Nannizzia gypsea [7] = test: checkerboard drug interaction (FICI, MICc);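 note: simplified diagonal checkerboard screen pairing antifungals with FPPS inhibitors, FICI derived using the Loewe additivity model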
Procedure: as §2

Cryptococcus gattii [8] = test: MIC broth microdilution (CLSI); type: cell-based; details: Cryptococcus gattii PNG27
Procedure: as §3

Nannizzia nana = test: checkerboard drug interaction (FICI, MICc); type: cell-based;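 note: simplified diagonal checkerboard screen pairing antifungals with FPPS inhibitors, FICI calculated under the Loewe additivity model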
Procedure: as §2

Trichophyton soudanense = test: checkerboard drug interaction (FICI, MICc); type: cell-based;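 note: simplified diagonal checkerboard screen pairing antifungals with FPPS inhibitors, FICI computed under the Loewe additivity model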
Procedure: as §2

Candida tropicalis [9] = test: MIC broth microdilution (CLSI); type: cell-based; details: Candida tropicalis M230640
Procedure: as §3

Microsporum canis [10] = test: MIC broth microdilution (CLSI); details: Microsporum canis R-232
Procedure: as §3

[11] = test system: Candida glabrata biofilms; test: biofilm XTT reduction assay (SIC80, SFICI); type: cell-based
Source text: (§1) […]. […] […].

[12] = test system: Aspergillus flavus biofilms; test: biofilm XTT reduction assay (SIC80, SFICI); type: cell-based
Source text: as §1

[13] = test system: Aspergillus fumigatus biofilms; test: biofilm XTT reduction assay (SIC80, SFICI); type: cell-based
Source text: as §1

[14] = test system: Saccharomyces cerevisiae biofilms; test: biofilm XTT reduction assay (SIC80, SFICI); type: cell-based; details: FLC:10-ZOL combination, Saccharomyces cerevisiae
Procedure: (§4) Biofilms of Cryptococcus were seeded in DMEM, and all other species were seeded in RPMI-1640.

[15] = test system: Candida albicans biofilms; test: biofilm XTT reduction assay (SIC80, SFICI); details: agent alone, Candida albicans SC5314
Procedure: as §4

[16] = test system: Trichophyton rubrum biofilms; test: biofilm XTT reduction assay (SIC80, SFICI); type: cell-based; details: biofilm, agent alone; Trichophyton rubrum 213
Procedure: as §4

Row | SMILES | antifungal MICc (Microsporum canis [1]; in combination with 10-ZOL) | antifungal MICc (Microsporum canis [1]; in combination with ZOL) | MIC / MEC (Cryptococcus tetragattii) [µg/mL] | MIC / MEC (Aspergillus terreus) [µg/mL] | MIC / MEC (Candida dubliniensis) [µg/mL] | antifungal MICc (Trichophyton tonsurans; in combination with 10-ZOL) | antifungal MICc (Trichophyton tonsurans; in combination with ZOL) | antifungal MICc (Pichia kudriavzevii; in combination with 10-ZOL) | antifungal MICc (Pichia kudriavzevii; in combination with ZOL) | antifungal MICc (Mucor circinelloides; in combination with 10-ZOL) | antifungal MICc (Mucor circinelloides; in combination with ZOL) | antifungal MICc (Candida parapsilosis; in combination with 10-ZOL) | antifungal MICc (Candida parapsilosis; in combination with ZOL) | antifungal MICc (Fusarium oxysporum [4]; in combination with ZOL) | antifungal MICc (Fusarium solani; in combination with 10-ZOL) | antifungal MICc (Fusarium solani; in combination with ZOL) | antifungal MICc (Candida tropicalis [5]; in combination with 10-ZOL) | antifungal MICc (Candida tropicalis [5]; in combination with ZOL) | antifungal MICc (Cryptococcus gattii [6]; in combination with 10-ZOL) | antifungal MICc (Cryptococcus gattii [6]; in combination with ZOL) | further results
1 | CC[C@H](C)C[C@H](C)CCCCCCCCC(=O)N[C@H]1C[C@@H](O)[C@@H](NCCN)NC(=O)[C@@H]2[C@@H](O)CCN2C(=O)[C@H]([C@H](O)CCN)NC(=O)[C@H]([C@H](O)[C@@H](O)c2ccc(O)cc2)NC(=O)[C@@H]2C[C@@H](O)CN2C(=O)[C@H]([C@@H](C)O)NC1=O [CAS, caspofungin] | 0.25 | 0.125 | 8 (≈ 7.32 µM) | 2 (≈ 1.83 µM) | 0.06 (≈ 0.0549 µM) | 2 | 0.25 | 0.5 | 0.5 | 128 | 16 | 0.25 | 0.5 | 64 | 16 | 64 | 0.25 | 0.02 | 2 | 16 | MIC / MEC (Epidermophyton floccosum): 0.13 µg/mL (≈ 0.119 µM); MIC / MEC (Nannizzia gypsea [2]): 1 µg/mL (≈ 0.915 µM); MIC / MEC (Fusarium oxysporum [3]): >16 µg/mL; MIC / MEC (Aspergillus felis): 0.25 µg/mL (≈ 0.229 µM); antifungal MICc (Fusarium oxysporum [4]; in combination with 10-ZOL): 128; MIC / MEC (Scedosporium apiospermum): 16 µg/mL (≈ 14.6 µM); antifungal MICc (Nannizzia gypsea [7]; in combination with 10-ZOL): 0.25; antifungal MICc (Nannizzia gypsea [7]; in combination with ZOL): 0.5; MIC / MEC (Cryptococcus gattii [8]): 8 µg/mL (≈ 7.32 µM); antifungal MICc (Nannizzia nana; in combination with 10-ZOL): 0.25; antifungal MICc (Nannizzia nana; in combination with ZOL): 0.033; antifungal MICc (Trichophyton soudanense; in combination with 10-ZOL): 0.5; antifungal MICc (Trichophyton soudanense; in combination with ZOL): 1; MIC / MEC (Candida tropicalis [9]): 0.06 µg/mL (≈ 0.0549 µM); MIC / MEC (Microsporum canis [10]): 0.25 µg/mL (≈ 0.229 µM)
2 | OC(Cn1cncn1)(Cn1cncn1)c1ccc(F)cc1F [FLC, fluconazole] | 64 | 32 | 4 (≈ 13.1 µM) | 64 (≈ 209 µM) | 0.125 (≈ 0.408 µM) | 2 | 32 | 16 | 8 | 32 | 32 | 1 | 0.25 | 64 | 64 | 32 | 1 | 2 | 1 | 0.25 | SICc ([11]; FLC:10-ZOL combination, Candida glabrata): 512 µg/mL; SIC80 ([11]; agent alone, Candida glabrata CBS138): >2,048 µg/mL; SICc ([12]; FLC:10-ZOL combination, Aspergillus flavus): 512 µg/mL; SIC80 ([12]; agent alone, Aspergillus flavus ATCC 204304): 1,024 µg/mL; SICc ([13]; FLC:10-ZOL combination, Aspergillus fumigatus): 512 µg/mL; SIC80 ([13]; agent alone, Aspergillus fumigatus ATCC 204305): >2,048 µg/mL; SICc [14]: 64 µg/mL; antifungal MICc (Nannizzia gypsea [7]; in combination with 10-ZOL): 64; SIC80 [15]: 512 µg/mL; MIC / MEC (Cryptococcus gattii [8]): 2 µg/mL (≈ 6.53 µM); antifungal MICc (Nannizzia nana; in combination with 10-ZOL): 32; antifungal MICc (Nannizzia nana; in combination with ZOL): 8; SIC80 [16]: 2,048 µg/mL; antifungal MICc (Trichophyton soudanense; in combination with 10-ZOL): 4; antifungal MICc (Trichophyton soudanense; in combination with ZOL): 64; MIC / MEC (Candida tropicalis [9]): 16 µg/mL (≈ 52.2 µM)
3 | C[C@@H](c1ncncc1F)[C@](O)(Cn1cncn1)c1ccc(F)cc1F [VOR] | 0.031 | 0.015 | 0.13 (≈ 0.372 µM) | 0.25 (≈ 0.716 µM) | 0.06 (≈ 0.172 µM) | 0.063 | 0.0625 | 0.5 | 1 | 4 | 4 | 0.063 | 0.125 | 4 | 0.5 | 1 | 0.032 | 0.0625 | 0.033 | 0.06 | MIC / MEC (Epidermophyton floccosum): 0.25 µg/mL (≈ 0.716 µM); MIC / MEC (Nannizzia gypsea [2]): 0.25 µg/mL (≈ 0.716 µM); MIC / MEC (Fusarium oxysporum [3]): 4 µg/mL (≈ 11.5 µM); MIC / MEC (Aspergillus felis): 2 µg/mL (≈ 5.73 µM); antifungal MICc (Fusarium oxysporum [4]; in combination with 10-ZOL): 1; MIC / MEC (Scedosporium apiospermum): 1 µg/mL (≈ 2.86 µM); antifungal MICc (Nannizzia gypsea [7]; in combination with 10-ZOL): 0.25; antifungal MICc (Nannizzia gypsea [7]; in combination with ZOL): 0.0625; MIC / MEC (Cryptococcus gattii [8]): 0.06 µg/mL (≈ 0.172 µM); antifungal MICc (Nannizzia nana; in combination with 10-ZOL): 0.0625; antifungal MICc (Nannizzia nana; in combination with ZOL): 0.0625; antifungal MICc (Trichophyton soudanense; in combination with 10-ZOL): 0.063; antifungal MICc (Trichophyton soudanense; in combination with ZOL): 0.03125; MIC / MEC (Candida tropicalis [9]): 0.13 µg/mL (≈ 0.372 µM); MIC / MEC (Microsporum canis [10]): 0.03 µg/mL (≈ 0.0859 µM)
